Test results taken from patent publication US7691572B2, “Method and kit for detecting resistance to antiviral drugs” (priority 1998, dated 2010).

Experiments:
[1] = system: HIV-1 reverse transcriptase; assay: Amp-RT assay, inhibition by 3TC-TP, reference viruses; assay type: biochemical
From the text: (§1) The phenotypic assay used in this example was based on the analysis of the susceptibility of HIV-1 reverse transcriptase activity from plasma to inhibition by 3TC-TP.
The assay detects reverse transcriptase activity by using a nonretroviral heteropolymeric RNA template derived from the encephalomyocarditis virus (EMCV) genome, and a complementary EMCV-specific DNA oligoprimer. The RT-generated EMCV cDNA is detected by PCR amplification and internal oligoprobing of the PCR product with an EMCV-specific probe.
(§2) Amp-RT detects reverse transcriptase activity by using a heterologous RNA template derived from the encephalomyocarditis virus (EMCV), a complementary DNA oligoprimer, and PCR amplification of reverse transcriptase-generated EMCV cDNA. […] To determine the susceptibility of the reverse transcriptase to 3TC-TP, an additional Amp-RT reaction was made in the presence of 3TC-TP, with concentrations of 3TC-TP ranging from 0.1 to 10 μM. […] PCR amplification of reverse transcriptase products was made as follows after the addition of 200 μM of each dNTP. A volume of 50 μl of PCR buffer containing 2.5 units of Taq polymerase, 100 ng of the sense primer EMCF1, and 200 μM of each dNTP was added to the reverse transcriptase mixture.
Wild type HIV-1SUM9, and multiple dideoxy nucleoside-resistant HIV-1SUM8 (Q151M mutation), HIV-1SUM12 (F77L/F116Y/Q151M) and HIV-1SUM13 (A62V/V751/F77L/F116Y/Q151M) MICs were provided by Dr. Mitsuya as described by Shirasaka et al., Proc. Natl. Acad. Sci. USA 92: 2398-2402 (1995). The synthesis and preparation of 3TC-TP were carried out as described by Schinazi et al., Antimicrob. Agents Chemother. 36: 2423-2431 (1992). The crude 3TC-5-TP was purified by FPLC using a HiLoad 26/10Q Sepharose Fast Flow™ Pharmacia chromatography column (Pharmacia, Piscataway, N.J.) and gradient of TEAE buffer (pH 7.0). The compound was characterized by UV spectroscopy, proton and phosphorous NMR, mass spectroscopy and HPLC.
Inhibition of reverse transcriptase by 3TC-TP results from the ability of 3TC-TP to act as a competitive inhibitor for 2′-deoxycytidine-5′-triphosphate (dCTP) and chain terminator as described by Arts and Wainberg, Antimicrob. Agents Chemother. 40: 527-540 (1996). To determine the optimal ratio of 3TC-TP and dCTP needed to inhibit wild type HIV-1 reverse transcriptase, but not 3TC-resistant reverse transcriptase, reverse transcriptase were tested from a wild type (xxBRUpitt) and a 3TC-resistant (M184Vpitt) HIV-1 in the presence of increasing concentrations of 3TC-TP (from 0.1 to 10 μM) and a fixed concentration of dCTP (5 μM).

[2] = system: plasma HIV-1 reverse transcriptase; assay: Amp-RT assay, inhibition by 3TC-TP, plasma samples of patients; assay type: biochemical; details: for Inhibition of RT(%): 5 uM 3TC-TP
Protocol: as §1
For culture supernatant, 10 μl were directly used for the reverse transcriptase reaction. The analysis of phenotypic resistance in plasma samples was made in plasma-free virus pellets as described in the protocol set forth in FIG. 1B.
as §2
A total of 30 EDTA-plasma samples from 15 HIV-1-infected patients from the Veteran Administration Medical Center, Decatur, Ga., were studied. The samples were collected from patients before and during anti-retroviral therapy with 3TC. The Amp-RT-based phenotypic assay was done under code with respect to date of serial bleed and reverse transcriptase genotype. One plasma specimen from a blood donor who tested antibody negative for HIV-1/2, HTLV-I/II was used as an assay negative control.

[3] = 5 μM 3TC-TP, wild type HIV-1, 10^−6 units of RT activity
[4] = 5 μM 3TC-TP, pretreatment samples (n=12)
[5] = sample 1E, 12 weeks, AZT/3TC, V/M184
[6] = sample 1F, 18 weeks, AZT/3TC, V184
[7] = sample 2F, 12 weeks, AZT/3TC, V184
[8] = sample 3F, 12 weeks, AZT/3TC, M/V184
[9] = sample 3G, 21 weeks, AZT/3TC, V184
[10] = sample 6B, 12 weeks, AZT/3TC, V184
[11] = sample 8B, 8 weeks, AZT/3TC, V184
[12] = sample 9F, 12 weeks, AZT/3TC, V184
[13] = sample 10A, 4 weeks, AZT/3TC, M184
[14] = sample 10C, 12 weeks, AZT/3TC, M/V184
[15] = sample 10G, 52 weeks, AZT/3TC, V184
[16] = sample 11A, 12 weeks, AZT/3TC, V/M184
[17] = sample 11C, 36 weeks, AZT/3TC, V184
[18] = sample 12E, 28 weeks, AZT/3TC, V184
[19] = sample 13A, Pre, d4T, M184, N69, R70
[20] = sample 13F, 60 weeks, d4T/3TC/IND, V184
[21] = sample 14A, 1 week, AZT/3TC, M184, D69
[22] = sample 14F, 44 weeks, IND/3TC, V184
[23] = sample 15A, Pre, AZT, M184, D69
[24] = sample 15D, 40 weeks, AZT/3TC/IND, V184
[25] = 5 μM 3TC-TP, samples with 184V only
[26] = 5 μM 3TC-TP, samples with mixtures of wild type and resistant genotypes

Compound: Nc1ccn([C@@H]2CS[C@H](COP(=O)(O)OP(=O)(O)OP(=O)(O)O)O2)c(=O)n1 [3TC-TP, 3TC-5′-triphosphate]
- inhibition of reverse transcriptase ([1]; 5 μM 3TC-TP, 3TC-resistant HIV-1 (M184Vpitt), high or low input of RT): No significant inhibition
- inhibition of RT activity ([1]; 5 μM 3TC-TP, mixture with 25% 3TC-resistant (M184Vpitt) virus in wild type xxBRUpitt): 87%
- inhibition of RT activity ([1]; 5 μM 3TC-TP, mixture with 75% 3TC-resistant (M184Vpitt) virus in wild type xxBRUpitt): 26%
- drop in Amp-RT virus load [1, 3]: 2.35 log10
- residual reverse transcriptase activity (of control without 3TC-TP) [1, 3]: 0.4%
- inhibition of reverse transcriptase ([1]; 5 μM 3TC-TP, wild type xxBRUpitt, 10^−7 and 10^−8 units of RT activity): complete inhibition
- IC90 relative to reference viruses ([1]; HIV-1SUM8 (Q151M)): approximately two-fold higher
- increase in IC50 compared to wild type virus ([1]; HIV-1SUM12, three MD resistance mutations (F77L/F116Y/Q151M)): six-
- increase in IC50 compared to wild type virus ([1]; HIV-1SUM13, all five MD resistance mutations): eight-fold
- mean reverse transcriptase inhibition [2, 4]: 98.7%
- median reverse transcriptase inhibition [2, 4]: 99.8%
- Inhibition of RT(%) ([2]; sample 1B, Pre, AZT/ddC, M184): 100%
- Inhibition of RT(%) [2, 5]: 75.6%
- Inhibition of RT(%) [2, 6]: 75.9%
- Inhibition of RT(%) ([2]; sample 2B, Pre, AZT/ddC, M184): 99.7%
- Inhibition of RT(%) [2, 7]: 68%
- Inhibition of RT(%) ([2]; sample 3B, Pre, AZT, M184): 99.4%
- Inhibition of RT(%) [2, 8]: 92.3%
- Inhibition of RT(%) [2, 9]: 0%
- Inhibition of RT(%) ([2]; sample 4A, Pre, AZT, M184): 99.9%
- Inhibition of RT(%) ([2]; sample 5A, Pre, AZT, M184): 100%
- Inhibition of RT(%) ([2]; sample 6A, Pre, None, M184): 99.9%
- Inhibition of RT(%) [2, 10]: 34.7%
- Inhibition of RT(%) ([2]; sample 7A, Pre, None, M/I184): 100%
- Inhibition of RT(%) ([2]; sample 8A, Pre, AZT, M184): 99.9%
- Inhibition of RT(%) [2, 11]: 15%
- Inhibition of RT(%) ([2]; sample 9A, Pre, d4T, M184): 97.8%
- Inhibition of RT(%) [2, 12]: 47%
- Inhibition of RT(%) [2, 13]: 87.8%
- Inhibition of RT(%) [2, 14]: 0%
- Inhibition of RT(%) [2, 15]: 0%
- Inhibition of RT(%) [2, 16]: 29.1%
- Inhibition of RT(%) [2, 17]: 58.5%
- Inhibition of RT(%) ([2]; sample 12A, Pre, AZT, M184): 96.3%
- Inhibition of RT(%) [2, 18]: 70%
- Inhibition of RT(%) [2, 19]: 95.9%
- Inhibition of RT(%) [2, 20]: 0%
- Inhibition of RT(%) [2, 21]: 94.7%
- Inhibition of RT(%) [2, 22]: 0%
- Inhibition of RT(%) [2, 23]: 95.5%
- Inhibition of RT(%) [2, 24]: 0%
- reverse transcriptase inhibition values ([2]; 5 μM 3TC-TP, samples after 1 to 60 weeks of therapy with 3TC (n=18)): less than 95%
- mean inhibition [2, 25]: 30.8%
- median inhibition [2, 25]: 24.9%
- mean inhibition [2, 26]: 49.3%
- median inhibition [2, 26]: 52.4%
- RT activity With 3TC-TP (5 uM) [2, 5]: 5.1 × 10^−7 units/ml
- RT activity With 3TC-TP (5 uM) [2, 6]: 3.3 × 10^−8 units/ml
- RT activity With 3TC-TP (5 uM) ([2]; sample 2B, Pre, AZT/ddC, M184): 6.3 × 10^−9 units/ml
- RT activity With 3TC-TP (5 uM) [2, 7]: 4.7 × 10^−7 units/ml
- RT activity With 3TC-TP (5 uM) ([2]; sample 3B, Pre, AZT, M184): 1.7 × 10^−8 units/ml
- RT activity With 3TC-TP (5 uM) [2, 8]: 1.2 × 10^−9 units/ml
- RT activity With 3TC-TP (5 uM) [2, 9]: 1.0 × 10^−8 units/ml
- RT activity With 3TC-TP (5 uM) ([2]; sample 4A, Pre, AZT, M184): 1.2 × 10^−10 units/ml
- RT activity With 3TC-TP (5 uM) ([2]; sample 6A, Pre, None, M184): 3.6 × 10^−8 units/ml
- RT activity With 3TC-TP (5 uM) [2, 10]: 1.5 × 10^−5 units/ml
- RT activity With 3TC-TP (5 uM) ([2]; sample 8A, Pre, AZT, M184): 5.7 × 10^−8 units/ml
- RT activity With 3TC-TP (5 uM) [2, 11]: 4.3 × 10^−5 units/ml
- RT activity With 3TC-TP (5 uM) ([2]; sample 9A, Pre, d4T, M184): 6.3 × 10^−8 units/ml
- RT activity With 3TC-TP (5 uM) [2, 12]: 1.1 × 10^−6 units/ml
- RT activity With 3TC-TP (5 uM) [2, 13]: 9.1 × 10^−6 units/ml
- RT activity With 3TC-TP (5 uM) [2, 14]: 1.9 × 10^−7 units/ml
- RT activity With 3TC-TP (5 uM) [2, 15]: 3.5 × 10^−5 units/ml
- RT activity With 3TC-TP (5 uM) [2, 16]: 1.3 × 10^−7 units/ml
- RT activity With 3TC-TP (5 uM) [2, 17]: 7.0 × 10^−8 units/ml
- RT activity With 3TC-TP (5 uM) ([2]; sample 12A, Pre, AZT, M184): 9.2 × 10^−7 units/ml
- RT activity With 3TC-TP (5 uM) [2, 18]: 5.1 × 10^−7 units/ml
- RT activity With 3TC-TP (5 uM) [2, 19]: 6.2 × 10^−8 units/ml
- RT activity With 3TC-TP (5 uM) [2, 20]: 7.4 × 10^−5 units/ml
- RT activity With 3TC-TP (5 uM) [2, 21]: 1.3 × 10^−8 units/ml
- RT activity With 3TC-TP (5 uM) [2, 22]: 5.1 × 10^−9 units/ml
- RT activity With 3TC-TP (5 uM) [2, 23]: 4.0 × 10^−6 units/ml
- RT activity With 3TC-TP (5 uM) [2, 24]: 2.4 × 10^−10 units/ml
